Test results: patent US20160095837A1, “MODULATION OF MITOCHONDRIAL CALCIUM UNIPORTER ACTIVITY FOR TREATING AND PREVENTING ARRHYTHMIAS” (priority 2014, published 2016)

Tests used:
Type in all cases: cell-based, mouse
[1] = test system: sinoatrial nodal (SAN) pacemaker cells; test: Spontaneous action potential rate of single SAN cells (perforated patch clamp); conditions: for SAN activity response to ISO: SR Ca2+ release eliminated by ryanodine or SERCA2a inhibited by thapsigargin; for SAN cell beating rate at baseline: no ISO (FIG. 10a)
Protocol: (§1) SAN cells were placed in Tyrode's solution at 36±0.5° C. and were identified by their characteristic morphology (spindle or spider shape) and spontaneous activity. SAN cells were identified electrophysiologically by spontaneous action potentials with a slow depolarizing phase 4 and the hyperpolarization-activated current (If).^27 Spontaneous action potentials, If and ICa were recorded using the perforated (amphotericin B or β-escin in studies requiring dialysis of Ru360 and/or ATP) patch-clamp technique^28 on single SAN cells at 36±0.5° C. in Tyrode's solution. Intracellular Ca^2+ transients were recorded from single SAN cells using Fura-2 AM excited at 340 nm and 380 nm and emitted and 510 nm. Endogenous NADH from single SAN cells was measured by excitation at 350 nm and recording emitted light at 460 nm.^29 Mitochondrial Ca^2+ was measured at 535 nm from mt-pericam expressing SAN cells exited at 415 nm^20. Mitochondrial Ca^2+ entry was measured in cell membrane permeabilized cardiomyocytes isolated from DN-MCU transgenic, wild type mice and from HEK293 cells using Calcium green-5N^30.
Isolation of single SAN cells from mice was performed according to previously published methods^22, 27, 31 with minor modifications. Mice were administered an intraperitoneal injection of avertin (20 μl/g) and monitored until unresponsive. The heart was excised and placed into Tyrode's solution (35° C.), consisting of (mM) 140 NaCl, 5.0 HEPES, 5.5 Glucose, 5.4 KCl, 1.8 CaCl2, and 1.0 MgCl2. The pH was adjusted to 7.4 with NaOH. […] The SAN was cut into smaller pieces, which were transferred and rinsed in a solution containing (mM) 140 NaCl, 5.0 HEPES, 5.5 Glucose, 5.4 KCl, 0.2 CaCl2, 0.5 MgCl2, 1.2 KH2PO4, 50 Taurine and 1 mg/ml bovine serum albumin (BSA), with pH adjusted to 7.4 using NaOH. SAN tissue pieces were digested in 5 ml of solution containing collagenase type I, elastase (Worthington), and protease type XIV (Sigma) for 20-30 min. The tissue was transferred to 10 ml of Kraft-Bruhe (KB) medium containing (mM) 100 potassium glutamate, 5.0 HEPES, 20 Glucose, 25 KCl, 10 potassium aspartate, 2.0 MgSO4, 10 KH2PO4, 20 taurine, 5 creatine, 0.5 EGTA, and 1 mg/ml BSA, with pH adjusted to 7.2 using KOH. The tissue was agitated using a glass pipette for 10 min. The cells were stored at 4° C. and studied within 7 hours.
SAN cells were placed in Tyrode's solution at 36±0.5° C. SAN cells were identified by their characteristic morphology (spindle or spider shape) and spontaneous activity in all single cell experiments. SAN cells were also identified electrophysiologically by typical spontaneous action potentials with slow depolarizing phase 4 and the hyperpolarization-activated current (If) in electrophysiological experiments.
Spontaneous action potentials (APs) and If were recorded using the perforated (amphotericin B or β-escin) patch-clamp technique^28 on single SAN cell at 36±0.5° C. in Tyrode's solution (0.5 mM BaCl2 was added to the bath solution when recording If^32). The pipette was filled with (mM) 130 potassium aspartate, 10 NaCl, 10 HEPES, 0.04 CaCl2, amphotericin B 240 μg/ml with pH adjusted to 7.2 with KOH. SAN cells with stable APs lasting at least 5 min were included in the experiments. β-escin 25 μM was substituted for amphotericin B to allow dialysis of Ru360 or ATP. When recording If, membrane potential was held at −35 mV, the voltage steps were applied for 5 s ranging from −125 mV to −45 mV in 10 mV increments or vice versa.^33 ICa was measured using the perforated patch technique at […] as previously described.^22 ICa was confirmed by its sensitivity to Nifedipine 5 μM. Depolarizing voltage pulses (300 ms in duration) to various potentials (−60 mV to 60 mV in 10 mV step) were applied after 50 ms at −40 mV to inactivate INa from a holding potential of −70 mV. […]

[2] = test system: SERCA2a activity ([Ca2+]cyto decline); test: Cytoplasmic Ca2+ transient decay (Fura-2 AM) in SAN cells
Protocol: as §1
Cytosolic Ca^2+ levels were recorded from Fura-2-loaded cells, excited at wavelengths of 340 and 380 nm, and imaged with a 510 nm long-pass filter. Single isolated SAN cells were loaded with 0.1 μM Fura-2 AM for 20 minutes, and then perfused for 20 minutes to de-esterfy the Fura-2 AM in normal Tyrode's solution. After placement on a recording chamber, the cells were perfused in normal Tyrode's solution at 36° C.±0.5. Spindle-shaped, spontaneously beating cells were chosen for experiments. Action potential recording was performed simultaneously.

[3] = test system: mitochondrial Ca2+ concentration ([Ca2+]mito); test: Mitochondrial Ca2+ measurement with mt-pericam in cultured SAN cells; conditions: ISO 100 nM
Protocol: as §1
Freshly isolated mouse SAN tissue was cut into small pieces and put into 35 mm tissue culture plates with DMEM. […] Expression of the recombinant ratio-5mt-pericam and DN-MCU in SAN cells was detected by GFP fluorescence. […]

NADH = NADH autofluorescence in SAN cells; conditions: ISO 100 nM
Protocol: as §1
The autofluorescence of endogenous NADH, which derives primarily from mitochondria,^29,35 was measured as described^29. NADH was excited at 350 nm (AT350/SOX, Chroma) and fluorescence was recorded at 460 nm (ET460/50m and T400LP, Chroma). […]

[4] = ATP dialysis, SAN cells from mice expressing phospholamban N27A

Q: With Nc1ncnc2c1ncn2[C@@H]1O[C@H](COP(=O)(O)OP(=O)(O)OP(=O)(O)O)[C@@H](O)[C@H]1O [ATP] as the compound, how does the “SAN cell rate response to ISO, ATP dialysis 8 mM” value ([1]; ATP dialysis 8 mM) read?
A: The value was “does not enhance”.

Q: And the “SAN rate responses to ISO, ATP dialysis alone” value ([1]; ATP dialysis without Ru360)?
A: The value was “had no affect”.

Q: What about the “SAN action potential frequency in N27A SAN cells” value [1, 4] of the same compound?
A: Its value is “did not significantly increase”.

Q: And the “Inhibitory effect of Ru360 on SAN cell action potential frequency responses to ISO, with ATP co-dialysis” value ([1]; co-dialysis with ATP 4 mM and Ru360)?
A: Its value is “reversed”.

Q: What about the “DN-MCU dependent loss of the ISO rate response, with ATP co-dialysis” value ([1]; cultured SAN cells expressing DN-MCU, ATP co-dialysis) of the same compound?
A: Its value is “rescued”.

Q: What about the “Basal SAN cell rates” value ([1]; dialysis, no ISO) of the same compound?
A: Its value is “neither Ru360 nor ATP had any affect”.

Q: And the “Rate of [Ca2+]cyto decline after ISO with Ru360 and ATP co-dialysis” value ([2]; ATP 4 mM co-dialysis with Ru360, relative to ISO-stimulated values without Ru360)?
A: The value was “restored”.

Q: What about the “Rate of [Ca2+]cyto decline in N27A SAN cells” value [2, 4] of the same compound?
A: Its value is “did not significantly increase”.

Q: CC(C)NCC(O)c1ccc(O)c(O)c1 (stereo not shown) [ISO, isoproterenol] was tested. Which “[Ca2+]mito” value [3] did it give?
A: The value was “caused an increase”.

Q: What about the “Rate of action potential initiation” value ([1]; ISO, concentration-dependent) of the same compound?
A: The value was “increased”.

Q: What about the NADH fluorescence (NADH) of the same compound?
A: Its NADH fluorescence is “increased”.

Q: And the “Rate of decline in [Ca2+]cyto” value ([2]; ISO vs control bath solution)?
A: The value was “significantly increased”.

Q: How did the “SAN activity response to ISO” value [1] turn out when C/C=C(/C)C(=O)O[C@H]1C(C)=C2[C@H]([C@@H]1OC(=O)CCCCCCC)[C@@](C)(OC(C)=O)C[C@H](OC(=O)CCC)[C@@]1(O)[C@H]2OC(=O)[C@@]1(C)O [thapsigargin] was run?
A: The value was “significantly reduced”.

Q: What about the “SAN cell beating rate at baseline” value [1] of the same compound?
A: The value was “reduce”.

Q: What does the source list for ryanodine?
A: SAN activity response to ISO [1]: significantly reduced; SAN cell beating rate at baseline [1]: reduce
